The text below walks through data of ChEMBL document CHEMBL4706545, “Antiproliferative effect of mitochondria-targeting allobetulin 1,2,3-triazolium salt derivatives and their mechanism of inducing apoptosis of cancer cells” (Eur J Med Chem, 2020).

One assay deals with HepG2. Kind of assay: Cytotoxicity against human HepG2 cells assessed as reduction in cell viability incubated for 48 hrs by MTT assay. In kind it is functional, cell-based. Particulars: HepG2, 48 h. In general terms: Tetrazolium dyes change colour on reduction, which living cells bring about.
In a further assay the test system is ECa-109 cell line. Kind of assay: Cytotoxicity against human ECa-109 cells assessed as reduction in cell viability incubated for 48 hrs by MTT assay. The settings on record: ECa-109, 48 h. In kind it is functional, cell-based.
For another assay, the system named is SGC-7901. Kind of assay: Cytotoxicity against human SGC-7901 cells assessed as reduction in cell viability incubated for 48 hrs by MTT assay. The settings on record: SGC-7901, 48 h. In kind it is functional, cell-based.
For a further assay, the system named is HeLa. Kind of assay: Cytotoxicity against human HeLa cells assessed as reduction in cell viability incubated for 48 hrs by MTT assay. The assay is classed as functional, cell-based.
The next assay relates to L02. Kind of assay: Cytotoxicity against human HL7702 cells assessed as reduction in cell viability incubated for 48 hrs by MTT assay. The settings on record: L02, 48 h. The assay is classed as ADME, cell-based.

Molecules are shown by their SMILES.

What is called IC50 is the concentration at which inhibition is half-maximal. In the case of `COC(Cn1nnc2c1C(C)(C)[C@@H]1CC[C@]3(C)[C@H](CC[C@@H]4[C@H]5[C@H]6OC[C@@]5(CCC6(C)C)CC[C@]43C)[C@@]1(C)C2)OC`, the IC50 with HepG2, in the assay with ECa-109 cell line, in the assay with SGC-7901, in the assay with HeLa and with L02 was above 80000 nM in each case.
`CC1(C)CC[C@]23CC[C@]4(C)[C@H](CC[C@@H]5[C@@]6(C)Cc7nnn(Cc8cccc(Cl)c8)c7C(C)(C)[C@@H]6CC[C@]54C)[C@H]2[C@H]1OC3`: the IC50 turned out to be 30700 nM in the assay with HepG2; 36500 nM with ECa-109 cell line; 31500 nM in the assay on SGC-7901; 34400 nM with HeLa; 26300 nM in the assay with L02.
The corresponding values for `C[n+]1nn(Cc2ccc(Cl)c(Cl)c2)c2c1C[C@]1(C)[C@H]3CC[C@@H]4[C@H]5[C@H]6OC[C@@]5(CCC6(C)C)CC[C@@]4(C)[C@]3(C)CC[C@H]1C2(C)C` are 2960 nM, 3030 nM, 2990 nM, 2830 nM and 2290 nM.
Take `Cc1ccc(Cn2n[n+](C)c3c2C(C)(C)[C@@H]2CC[C@]4(C)[C@H](CC[C@@H]5[C@H]6[C@H]7OC[C@@]6(CCC7(C)C)CC[C@]54C)[C@@]2(C)C3)cc1`: the IC50 with HepG2 stood at 2280 nM; in the assay on ECa-109 cell line, 2620 nM; with SGC-7901, 2160 nM; in the assay on HeLa it was 2210 nM; with L02 it was 1470 nM.
For the compound `COc1ccc(CCn2nnc3c2C(C)(C)[C@@H]2CC[C@]4(C)[C@H](CC[C@@H]5[C@H]6[C@H]7OC[C@@]6(CCC7(C)C)CC[C@]54C)[C@@]2(C)C3)cc1`, the 50% inhibitory concentration (IC50) in the assay with HepG2 worked out at 36600 nM; in the assay with ECa-109 cell line, 51800 nM; in the assay on SGC-7901 it was 45200 nM; in the assay with HeLa it was 42400 nM; in the assay with L02, 39300 nM.
For the compound `COC(Cn1n[n+](C)c2c1C(C)(C)[C@@H]1CC[C@]3(C)[C@H](CC[C@@H]4[C@H]5[C@H]6OC[C@@]5(CCC6(C)C)CC[C@]43C)[C@@]1(C)C2)OC`, the IC50 with HepG2 was found to be 6330 nM; in the assay on ECa-109 cell line it was 5530 nM; with SGC-7901, 6670 nM; with HeLa, 5390 nM; in the assay with L02 it was 4100 nM.
As to `COc1cccc(CCn2n[n+](C)c3c2C(C)(C)[C@@H]2CC[C@]4(C)[C@H](CC[C@@H]5[C@H]6[C@H]7OC[C@@]6(CCC7(C)C)CC[C@]54C)[C@@]2(C)C3)c1`, the IC50 was found to be 2720 nM in the assay with HepG2; 2060 nM with ECa-109 cell line; 2370 nM in the assay on SGC-7901; 2870 nM with HeLa; 2210 nM in the assay on L02.
For the compound `COc1ccc(Cn2n[n+](C)c3c2C(C)(C)[C@@H]2CC[C@]4(C)[C@H](CC[C@@H]5[C@H]6[C@H]7OC[C@@]6(CCC7(C)C)CC[C@]54C)[C@@]2(C)C3)cc1`, the IC50 was 2860 nM in the assay with HepG2; 2780 nM in the assay with ECa-109 cell line; 2010 nM in the assay with SGC-7901; 2480 nM in the assay with HeLa; 2240 nM in the assay on L02.
Turning to `CC1(C)CC[C@]23CC[C@]4(C)[C@H](CC[C@@H]5[C@@]6(C)Cc7nnn(Cc8ccc(Cl)cc8)c7C(C)(C)[C@@H]6CC[C@]54C)[C@H]2[C@H]1OC3`, the concentration for half-maximal inhibition (IC50) with HepG2 turned out to be 66000 nM; in the assay on ECa-109 cell line it was 64200 nM; with SGC-7901, 61400 nM; with HeLa, 51300 nM; in the assay on L02, 44900 nM.
`COc1cccc(Cn2n[n+](C)c3c2C(C)(C)[C@@H]2CC[C@]4(C)[C@H](CC[C@@H]5[C@H]6[C@H]7OC[C@@]6(CCC7(C)C)CC[C@]54C)[C@@]2(C)C3)c1`: the IC50 in the assay on HepG2 was determined as 2180 nM; in the assay on ECa-109 cell line, 2810 nM; in the assay with SGC-7901, 1810 nM; with HeLa, 2330 nM; in the assay on L02, 1720 nM.
